Assays:
Assay type in all cases: cell-based, mouse
[1] = test system: MC3T3-E1 cells; assay: Cell metabolic activity (EZ4U, MTT similar assay); details: 24 hours of treatment, read-out: half-maximal effective concentration (EC50), cell metabolic activity
Protocol: (§1) To assess cell metabolic activity, a commercially available, MTT similar assay (EZ4U; Biomedica, Vienna, Austria) was used. For this purpose, the cell lines were incubated with increasing concentrations of L- or DL-SFN.

[2] = test system: MLO-Y4 cells; assay: Cell metabolic activity (EZ4U, MTT similar assay); details: 24 hours of treatment, read-out: half-maximal effective concentration (EC50), cell metabolic activity
Protocol: as §1

[3] = test system: RAW 264.7 cells; assay: Cell metabolic activity (EZ4U, MTT similar assay); details: read-out: half-maximal effective concentration (EC50), cell metabolic activity
Protocol: as §1

[4] = test system: RAW 264.7 cells; assay: Cell count (proliferation/viability); details: RAW 264.7, 24 hours, doses of 3 μM and higher
Protocol: Cell lines were seeded in 24-well culture dishes at a density of 20,000/cm^2 and were either left untreated (controls) or treated with L- or DL-SFN at the indicated concentrations for up to 48 hours. Thereafter, cells were detached with 0.001% pronase E, and the number of viable cells was assessed with Casy cell counter (Schaerfe Systems, Reutlingen, Germany). Each experiment was performed in quadruplicate, and experiments were carried out twice. For long term experiments, cell number was determined using DNA amount as surrogate. Cell layers were washed with PBS and fixed for 20 minutes with 4% PFA. Thereafter, Hoechst 33258 dye (Polysciences, Warrington, Pa., USA) was added (1 μg/mL), and, after an incubation of 15 minutes at room temperature, the fluorescence was measured (excitation 360, emission 465 nm). The amount of DNA was estimated using a standard curve prepared from calf thymus DNA (Roche).

[5] = test system: MC3T3-E1 cells; assay: Caspase activity (CASPASE-GLO); details: MC3T3-E1, 3 μM, 24 hours
Protocol: (§2) Caspase 3/7 and caspase 8 activities were measured by using the CASPASE-GLO® 3/7 and CASPASE-GLO® 8 assay Kit (Promega, Madison, Wis., USA) following manufactures instructions. Briefly, after treatments, cells were lysed, and substrate cleavage by caspases was measured by the generated luminescent signal with a 96 multi-well luminometer (Glomax, Promega). Each experiment was performed in quintuplicate and experiments were carried out twice.

[6] = test system: MLO-Y4 cells; assay: Caspase activity (CASPASE-GLO); details: MLO-Y4, 3 μM, 24 hours
Protocol: as §2

[7] = test system: RAW 264.7 cells; assay: Caspase activity (CASPASE-GLO); details: RAW 264.7, 3 μM, 24 hours
Protocol: as §2

[8] = test system: BMSCs; assay: ECM mineralization by Alizarin Red stain; details: long-term treatment in osteogenic media
Protocol: Mouse bone marrow mesenchymal stem cells were isolated from aseptically dissected long bones of 6-week old C57BL/6 mice (Himberg, Austria). The marrow cavities were flushed with sterile medium using a 25-gauge needle, and the culture was established in α-MEM supplemented with 10% FCS and […]. After 48 hours of culture at 5% CO2 and 37° C., the non-adherent cells were removed by gentle rinsing with PBS. At confluence, cells were harvested and seeded at a density of 3,000/cm^2 for cell experiments. For osteogenic differentiation, cells were cultured in α-MEM supplemented with 10% FBS, […], 100 nM dexamethasone, 10 mM β-glycerophosphate, and 50 μg/mL ascorbic acid with or without L- or DL-SFN. Culture medium was renewed twice a week, and cells were cultured for the periods indicated in the result section.
Calvariae from 2 to 3-day-old and from 7-week old C57BL/6 mice were dissected aseptically. […] Thereafter, one part of the calvariae were fixed for 1 hour in 4% para-formaldehyde (PFA), and mineralization was measured by Alizarin Red S stain (Sigma-Aldrich). […] Alizarin Red S absorbance was measured at 562 nm in a multi-plate reader (Tecan, Maennedorf, Switzerland) and normalized to total protein amount measured by bicinchoninic acid assay (Thermo Fisher Scientific, Waltham, Mass., USA). […]

[9] = test system: neonatal calvarial explants; assay: ECM mineralization by Alizarin Red stain in calvarial explants; details: newborn calvarial explants, 3 μM
Protocol: Calvariae from 2 to 3-day-old and from 7-week old C57BL/6 mice were dissected aseptically. The calvarial bone explants were cultured in 48-well plates in α-MEM (Biochrom) containing 10% FCS (Biochrom), 50 μg/mL ascorbic acid (Sigma-Aldrich), 5 mM β-glycerophosphate (Sigma-Aldrich), and 10 μg/mL gentamicin (Sigma-Aldrich). […] Thereafter, one part of the calvariae were fixed for 1 hour in 4% para-formaldehyde (PFA), and mineralization was measured by Alizarin Red S stain (Sigma-Aldrich). For this purpose, Alizarin Red S dye was extracted using 10% cetylpyridinium chloride (CPC) in 10 mM sodiumphosphate (pH=7.0) for 45 minutes at room temperature. Alizarin Red S absorbance was measured at 562 nm in a multi-plate reader (Tecan, Maennedorf, Switzerland) and normalized to total protein amount measured by bicinchoninic acid assay (Thermo Fisher Scientific, Waltham, Mass., USA). From the other part of the calvariae, total RNA was extracted.

| Compound | EC50 [1] [µM] | EC50 [2] [µM] | EC50 [3] [µM] | number of viable cells [4] | activities of the caspases 3/7 [5] | activity of caspase 8 [5] | activities of the caspases 3/7 [6] | activity of caspase 8 [6] | Caspase 8 and Caspase 3/7 activity [7] | ECM mineralization [8] | ECM mineralization [9] |
| --- | --- | --- | --- | --- | --- | --- | --- | --- | --- | --- | --- |
| C[S+]([O-])CCCCN=C=S (racemic) [DL-SFN] | ~13 | ~6 | ~6.01 | reduced | significant increase | significantly increased | significant increase | significantly increased | stimulated | significantly increased | significantly increased |
| C[S+]([O-])CCCCN=C=S [L-SFN] | ~48 | ~11 | ~10.1 | reduced | – | significantly increased | – | significantly increased | stimulated | significantly increased | significantly increased |
